According to ChEMBL document CHEMBL1201862, “PubChem BioAssay data set” (2004):
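Tested at 5 concentrations; 48 h exposure; 96-well plates; endpoints linearly interpolated, else capped at highest concentration. At the GI50, growth is halved.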 Calls of active or inactive are those of the source. Rule as the data show it: active = GI50 up to about 1.1 µM and inactive = higher.

Columns and labels:
Assay in all cases: NCI-60 cell line screen, 48 h
CAKI-1 = test system: CAKI-1
HCC 2998 = test system: HCC 2998
RXF 393 = test system: RXF 393
SF-539 = test system: SF-539
SF-268 = test system: SF-268
SW-620 = test system: SW-620
OVCAR-8 = test system: OVCAR-8
SNB-19 = test system: SNB-19
LOX IMVI = test system: LOX IMVI
MOLT-4 = test system: MOLT-4
NCI-H226 = test system: NCI-H226
NCI-H460 = test system: NCI-H460
SK-MEL-28 = test system: SK-MEL-28
TK-10 = test system: TK-10
KM12 = test system: KM12
SR = test system: SR

Measured: GI50

O=C(O)[C@H](NS(=O)(=O)c1ccc(F)cc1)c1ccccc1
inactive: CAKI-1 > 100 µM | HCC 2998 > 100 µM | RXF 393 > 100 µM | SF-539 > 100 µM | SF-268 > 100 µM | SW-620 > 100 µM | OVCAR-8 > 100 µM | SNB-19 > 100 µM | LOX IMVI > 100 µM | MOLT-4 > 100 µM | NCI-H226 > 100 µM | NCI-H460 > 100 µM | SK-MEL-28 > 100 µM | TK-10 > 100 µM

COc1ccc(NC(=O)/C(=C/c2ccccc2)C(C)=O)cc1
inactive: CAKI-1 15.4 µM | HCC 2998 18.9 µM | SF-539 15.3 µM | SF-268 15.2 µM | SW-620 16.2 µM | OVCAR-8 18.1 µM | SNB-19 16.2 µM | LOX IMVI 10.7 µM | MOLT-4 11.4 µM | NCI-H226 19.2 µM | KM12 12.4 µM | NCI-H460 21.6 µM | SK-MEL-28 12.9 µM | TK-10 20.3 µM

C=C[Si](C)(C)COC(=O)/C(C#N)=C/C=C/c1ccccc1
inactive: HCC 2998 > 100 µM | RXF 393 40.6 µM | SF-539 > 100 µM | SF-268 > 100 µM | SW-620 76 µM | OVCAR-8 > 100 µM | SNB-19 > 100 µM | SR 25.2 µM | MOLT-4 28.7 µM | NCI-H226 > 100 µM | KM12 > 100 µM | NCI-H460 > 100 µM | SK-MEL-28 > 100 µM

CC12CC(=O)NN=C1c1ccccc1C2 (stereo not given)
inactive: CAKI-1 > 100 µM | HCC 2998 > 100 µM | RXF 393 > 100 µM | SF-539 > 100 µM | SF-268 > 100 µM | SW-620 > 100 µM | OVCAR-8 > 100 µM | SNB-19 > 100 µM | LOX IMVI > 100 µM | MOLT-4 > 100 µM | NCI-H226 > 100 µM | KM12 > 100 µM | NCI-H460 > 100 µM | SK-MEL-28 > 100 µM | TK-10 > 100 µM

NNC(=O)N/N=C(/CC1(O)C(=O)Nc2ccc(Br)cc21)c1ccccc1 (stereo not given)
inactive: CAKI-1 30.3 µM | SF-539 23.9 µM | SF-268 21.5 µM | SW-620 50 µM | SNB-19 11.8 µM | LOX IMVI 18.1 µM | SR 31.6 µM | MOLT-4 16.7 µM | NCI-H226 82.6 µM | KM12 25.7 µM | SK-MEL-28 28.2 µM | TK-10 55.6 µM

Cc1nc2ccccc2nc1CC(=O)C(=O)Nc1ccc(Cl)cc1Cl
inactive: CAKI-1 > 100 µM | HCC 2998 > 100 µM | RXF 393 > 100 µM | SF-539 > 100 µM | SF-268 > 100 µM | SW-620 > 100 µM | OVCAR-8 > 100 µM | SNB-19 > 100 µM | LOX IMVI > 100 µM | MOLT-4 > 100 µM | KM12 > 100 µM | NCI-H460 > 100 µM | SK-MEL-28 > 100 µM | TK-10 > 100 µM

NC(=O)c1c(-c2ccccc2)c(-c2ccccc2)cc2c(=O)c3ccccc3[nH]c12
inactive: HCC 2998 43.2 µM | SF-539 17.5 µM | SF-268 39 µM | SW-620 37.1 µM | OVCAR-8 20.8 µM | SNB-19 21 µM | LOX IMVI 45.5 µM | MOLT-4 16.4 µM | KM12 21.8 µM | NCI-H460 22.2 µM | SK-MEL-28 17.8 µM | TK-10 18.5 µM

COc1ccc([N+]2=NC(c3ccc([N+](=O)[O-])cc3)=NN(c3ccccc3)C2)cc1
inactive: HCC 2998 > 100 µM | RXF 393 > 100 µM | SF-268 97.7 µM | SW-620 68.4 µM | OVCAR-8 > 10 µM | SNB-19 71.9 µM | LOX IMVI 30.1 µM | SR 32.9 µM | MOLT-4 21.6 µM | NCI-H226 52.4 µM | NCI-H460 25.9 µM | SK-MEL-28 70.8 µM | TK-10 > 100 µM

Cc1cccc(-n2c(N)c(-c3nc4ccccc4[nH]3)sc2=S)c1
inactive: CAKI-1 47.4 µM | HCC 2998 > 10 µM | RXF 393 33.3 µM | SF-539 20.4 µM | SF-268 76.6 µM | SW-620 31.4 µM | OVCAR-8 28.4 µM | SNB-19 36.6 µM | LOX IMVI 26.8 µM | MOLT-4 20.6 µM | NCI-H226 32.7 µM | KM12 22 µM | SK-MEL-28 37 µM | TK-10 29.5 µM

COc1ccc(C2C(C(=O)O)=C(CO)Oc3cc4c(cc32)OCO4)c(OC)c1 (stereo not given)
inactive: CAKI-1 88.1 µM | RXF 393 > 100 µM | SF-539 70 µM | SW-620 > 100 µM | OVCAR-8 98.4 µM | SNB-19 70.5 µM | LOX IMVI 45.1 µM | MOLT-4 22.5 µM | NCI-H460 > 100 µM | SK-MEL-28 46.2 µM | TK-10 > 100 µM

N=C(N)NS(=O)(=O)c1ccc(NC(=O)c2cccc3cc4ccccc4nc23)cc1
inactive: CAKI-1 > 100 µM | RXF 393 > 100 µM | SF-539 25.5 µM | SF-268 88.5 µM | SW-620 66.8 µM | OVCAR-8 14.5 µM | SNB-19 9.79 µM | LOX IMVI 51.5 µM | MOLT-4 5.55 µM | NCI-H226 9.75 µM | KM12 30.8 µM | NCI-H460 > 100 µM | SK-MEL-28 > 100 µM | TK-10 > 100 µM

Nc1c(-c2nc3ccccc3[nH]2)sc(=S)n1-c1ccccc1
inactive: CAKI-1 > 100 µM | HCC 2998 > 100 µM | RXF 393 46.9 µM | SF-539 > 100 µM | SF-268 > 100 µM | SW-620 > 100 µM | OVCAR-8 > 100 µM | SNB-19 > 100 µM | SR 30.3 µM | MOLT-4 16.3 µM | NCI-H226 > 100 µM | KM12 > 100 µM | NCI-H460 > 100 µM | SK-MEL-28 > 100 µM

O=[N+]([O-])c1ccc(C2=Nn3c(nnc3-c3ccccc3)SC2)o1
inactive: CAKI-1 19.9 µM | HCC 2998 18.9 µM | RXF 393 19.3 µM | SF-539 18.8 µM | SF-268 20.2 µM | SW-620 18 µM | OVCAR-8 19.3 µM | SNB-19 85.5 µM | MOLT-4 24.3 µM | NCI-H226 58.6 µM | KM12 18 µM | NCI-H460 18.6 µM | SK-MEL-28 29.2 µM | TK-10 19.6 µM

Cc1cc2nc3c(=O)[nH]c(=O)nc-3n(CC(O)C(O)C(O)CO)c2cc1N (stereo not given)
inactive: HCC 2998 > 100 µM | SF-539 > 100 µM | SW-620 > 100 µM | OVCAR-8 > 100 µM | SNB-19 > 100 µM | LOX IMVI > 100 µM | MOLT-4 > 100 µM | NCI-H226 > 100 µM | KM12 > 100 µM | NCI-H460 > 100 µM | SK-MEL-28 > 100 µM | TK-10 > 100 µM

CCc1ccccc1NC(=O)c1cccc([N+](=O)[O-])c1O
inactive: CAKI-1 25.1 µM | HCC 2998 24.7 µM | RXF 393 8.51 µM | SF-539 > 100 µM | SF-268 25.2 µM | SW-620 38.4 µM | OVCAR-8 46.7 µM | SNB-19 41.7 µM | LOX IMVI 16.3 µM | MOLT-4 18.6 µM | NCI-H226 29 µM | KM12 18.1 µM | NCI-H460 20.8 µM | SK-MEL-28 28.2 µM
